Test system: PBMCs infected with VSV-G pseudotyped HIV virus (VSV-G/pNLG1-P2A-ΔEnv)
Assay: cells
Assay type: cell-based, human
Conditions: Homo sapiens, PBMC, read-out: TACK EC50

Compound | EC50
Cn1ccc(-c2ccn(Cc3cc4c(cc3F)[C@@](C#CC3CC3)(C(C)(F)F)NC(=O)N4)n2)n1 [Example 53, (S)-4-(cyclopropylethynyl)-4-(1,1-difluoroethyl)-6-fluoro-7-((1′-methyl-1H,1′H-[3,3′-bipyrazol]-1-yl)methyl)-3,4-dihydroquinazolin-2(1H)-one] | 0.0283 µM
COCc1ccn(Cc2cc3c(cc2F)[C@@](C#CC2CC2)(C(C)(F)F)NC(=O)N3)n1 [Example 54, (S)-4-(cyclopropylethynyl)-4-(1,1-difluoroethyl)-6-fluoro-7-((3-(methoxymethyl)-1H-pyrazol-1-yl)methyl)-3,4-dihydroquinazolin-2(1H)-one] | 0.0335 µM
CC(F)(F)[C@@]1(C#CC2CC2)NC(=O)Nc2cc(Cn3cccn3)c(F)cc21 [Example 55, (S)-7-((1H-pyrazol-1-yl)methyl)-4-(cyclopropylethynyl)-4-(1,1-difluoroethyl)-6-fluoro-3,4-dihydroquinazolin-2(1H)-one] | 0.0217 µM
CC(F)(F)[C@@]1(C#CC2CC2)NC(=O)Nc2cc(Cn3ccnc3)c(F)cc21 [Example 56, (S)-7-((1H-imidazol-1-yl)methyl)-4-(cyclopropylethynyl)-4-(1,1-difluoroethyl)-6-fluoro-3,4-dihydroquinazolin-2(1H)-one] | 0.028 µM
COc1ccn(Cc2cc3c(cc2F)[C@@](C#CC2CC2)(C(C)(F)F)NC(=O)N3)n1 [Example 57, (S)-4-(cyclopropylethynyl)-4-(1,1-difluoroethyl)-6-fluoro-7-((3-methoxy-1H-pyrazol-1-yl)methyl)-3,4-dihydroquinazolin-2(1H)-one] | 0.0128 µM
CC(F)(F)[C@@]1(C#CC2CC2)NC(=O)Nc2cc(Cn3nc(N)cc3Cl)c(F)cc21 [Example 60, (S)-7-((3-amino-5-chloro-1H-pyrazol-1-yl)methyl)-4-(cyclopropylethynyl)-4-(1,1-difluoroethyl)-6-fluoro-3,4-dihydroquinazolin-2(1H)-one] | 0.0289 µM
CC(F)(F)[C@@]1(C#CC2CC2)NC(=O)Nc2cc(Cn3[nH]c(=O)c4c3CCC4)c(F)cc21 [Example 61, (S)-4-(cyclopropylethynyl)-4-(1,1-difluoroethyl)-6-fluoro-7-((3-oxo-3,4,5,6-tetrahydrocyclopenta[c]pyrazol-1(2H)-yl)methyl)-3,4-dihydroquinazolin-2(1H)-one] | 0.0306 µM
NC(=O)c1nccn1Cc1cc2c(cc1F)[C@@](C#CC1CC1)(C(F)(F)C1CC1)NC(=O)N2 [Example 62, (S)-1-((4-(cyclopropyldifluoromethyl)-4-(cyclopropylethynyl)-6-fluoro-2-oxo-1,2,3,4-tetrahydroquinazolin-7-yl)methyl)-1H-imidazole-2-carboxamide] | 0.0319 µM
CC(F)(F)[C@@]1(C#CC2CC2)NC(=O)Nc2cc(Cn3ccc(OC(F)F)n3)c(F)cc21 [Example 63, (S)-4-(cyclopropylethynyl)-4-(1,1-difluoroethyl)-7-((3-(difluoromethoxy)-1H-pyrazol-1-yl)methyl)-6-fluoro-3,4-dihydroquinazolin-2(1H)-one] | 0.0335 µM
COCc1cnn(Cc2cc3c(cc2F)[C@@](C#CC2CC2)(C(C)(F)F)NC(=O)N3)c1 [Example 64, (S)-4-(cyclopropylethynyl)-4-(1,1-difluoroethyl)-6-fluoro-7-((4-(methoxymethyl)-1H-pyrazol-1-yl)methyl)-3,4-dihydroquinazolin-2(1H)-one] | 0.034 µM
COCc1ncn(Cc2cc3c(cc2F)[C@@](C#CC2CC2)(C(C)(F)F)NC(=O)N3)n1 [Example 65, (S)-4-(cyclopropylethynyl)-4-(1,1-difluoroethyl)-6-fluoro-7-((3-(methoxymethyl)-1H-1,2,4-triazol-1-yl)methyl)-3,4-dihydroquinazolin-2(1H)-one] | 0.0381 µM
COCc1nn(Cc2cc3c(cc2F)[C@@](C#CC2CC2)(C(C)(F)F)NC(=O)N3)cc1Cl [Example 66, (S)-7-((4-chloro-3-(methoxymethyl)-1H-pyrazol-1-yl)methyl)-4-(cyclopropylethynyl)-4-(1,1-difluoroethyl)-6-fluoro-3,4-dihydroquinazolin-2(1H)-one] | 0.0389 µM
CC(F)(F)[C@@]1(C#CC2CC2)NC(=O)Nc2cc(Cn3cc(F)c(CO)n3)c(F)cc21 [Example 67, (S)-4-(cyclopropylethynyl)-4-(1,1-difluoroethyl)-6-fluoro-7-((4-fluoro-3-(hydroxymethyl)-1H-pyrazol-1-yl)methyl)-3,4-dihydroquinazolin-2(1H)-one] | 0.0261 µM
Cc1cn(Cc2cc3c(cc2F)[C@@](C#CC2CC2)(C(C)(F)F)NC(=O)N3)nc1CO [Example 68, (S)-4-(cyclopropylethynyl)-4-(1,1-difluoroethyl)-6-fluoro-7-((3-(hydroxymethyl)-4-methyl-1H-pyrazol-1-yl)methyl)-3,4-dihydroquinazolin-2(1H)-one] | 0.031 µM
CC(F)(F)[C@@]1(C#CC2CC2)NC(=O)Nc2cc(Cn3nc(CO)cc3Cl)c(F)cc21 [Example 69, (S)-7-((5-chloro-3-(hydroxymethyl)-1H-pyrazol-1-yl)methyl)-4-(cyclopropylethynyl)-4-(1,1-difluoroethyl)-6-fluoro-3,4-dihydroquinazolin-2(1H)-one] | 0.0298 µM
CC(F)(F)[C@@]1(C#CC2CC2)NC(=O)Nc2cc(Cn3cc(CCO)cn3)c(F)cc21 [Example 70, (S)-4-(cyclopropylethynyl)-4-(1,1-difluoroethyl)-6-fluoro-7-((4-(2-hydroxyethyl)-1H-pyrazol-1-yl)methyl)-3,4-dihydroquinazolin-2(1H)-one] | 0.0507 µM
CC(F)(F)[C@@]1(C#CC2CC2)NC(=O)Nc2cc(Cn3cc(Cl)c(CO)n3)c(F)cc21 [Example 71, (S)-7-((4-chloro-3-(hydroxymethyl)-1H-pyrazol-1-yl)methyl)-4-(cyclopropylethynyl)-4-(1,1-difluoroethyl)-6-fluoro-3,4-dihydroquinazolin-2(1H)-one] | 0.03 µM
COc1nccn1Cc1cc2c(cc1F)[C@@](C#CC1CC1)(C(C)(F)F)NC(=O)N2 [Example 74, (S)-4-(cyclopropylethynyl)-4-(1,1-difluoroethyl)-6-fluoro-7-((2-methoxy-1H-imidazol-1-yl)methyl)-3,4-dihydroquinazolin-2(1H)-one] | 0.0381 µM
CNc1ccn(Cc2cc3c(cc2F)[C@@](C#CC2CC2)(C(C)(F)F)NC(=O)N3)n1 [Example 75, (S)-4-(cyclopropylethynyl)-4-(1,1-difluoroethyl)-6-fluoro-7-((3-(methylamino)-1H-pyrazol-1-yl)methyl)-3,4-dihydroquinazolin-2(1H)-one] | 0.0369 µM
CN(C)c1ccn(Cc2cc3c(cc2F)[C@@](C#CC2CC2)(C(C)(F)F)NC(=O)N3)n1 [Example 76, (S)-4-(cyclopropylethynyl)-4-(1,1-difluoroethyl)-7-((3-(dimethylamino)-1H-pyrazol-1-yl)methyl)-6-fluoro-3,4-dihydroquinazolin-2(1H)-one] | 0.0604 µM
CC(F)(F)[C@@]1(C#CC2CC2)NC(=O)Nc2cc(CNC(=O)c3[nH]cnc3Cl)c(F)cc21 [Example 77, (S)-4-chloro-N-((4-(cyclopropylethynyl)-4-(1,1-difluoroethyl)-6-fluoro-2-oxo-1,2,3,4-tetrahydroquinazolin-7-yl)methyl)-1H-imidazole-5-carboxamide] | 0.0087 µM
O=C1Nc2cc(CNC(=O)c3[nH]cnc3Cl)c(F)cc2[C@@](C#CC2CC2)(C(F)(F)F)N1 [Example 78, (S)-4-chloro-N-((4-(cyclopropylethynyl)-6-fluoro-2-oxo-4-(trifluoromethyl)-1,2,3,4-tetrahydroquinazolin-7-yl)methyl)-1H-imidazole-5-carboxamide] | 0.0151 µM
CC(F)(F)[C@@]1(C#CC2CC2)NC(=O)Nc2cc(CNC(=O)c3ncc[nH]3)c(F)cc21 [Example 79, (S)—N-((4-(cyclopropylethynyl)-4-(1,1-difluoroethyl)-6-fluoro-2-oxo-1,2,3,4-tetrahydroquinazolin-7-yl)methyl)-1H-imidazole-2-carboxamide] | 0.0092 µM
O=C1Nc2cc(CNC(=O)c3ncc[nH]3)c(F)cc2[C@@](C#CC2CC2)(C(F)(F)F)N1 [Example 80, (S)-N-((4-(cyclopropylethynyl)-6-fluoro-2-oxo-4-(trifluoromethyl)-1,2,3,4-tetrahydroquinazolin-7-yl)methyl)-1H-imidazole-2-carboxamide] | 0.0098 µM
CN(Cc1cc2c(cc1F)[C@@](C#CC1CC1)(C(C)(F)F)NC(=O)N2)C(=O)c1ncc[nH]1 [Example 81, (S)-N-((4-(cyclopropylethynyl)-4-(1,1-difluoroethyl)-6-fluoro-2-oxo-1,2,3,4-tetrahydroquinazolin-7-yl)methyl)-N-methyl-1H-imidazole-2-carboxamide] | 0.0121 µM
Cn1ccnc1C(=O)NCc1cc2c(cc1F)[C@@](C#CC1CC1)(C(C)(F)F)NC(=O)N2 [Example 82, (S)-N-((4-(cyclopropylethynyl)-4-(1,1-difluoroethyl)-6-fluoro-2-oxo-1,2,3,4-tetrahydroquinazolin-7-yl)methyl)-1-methyl-1H-imidazole-2-carboxamide] | 0.153 µM
O=C1Nc2cc(CNC(=O)c3ncco3)c(F)cc2[C@@](C#CC2CC2)(C(F)(F)F)N1 [Example 83, (S)-N-((4-(cyclopropylethynyl)-6-fluoro-2-oxo-4-(trifluoromethyl)-1,2,3,4-tetrahydroquinazolin-7-yl)methyl)oxazole-2-carboxamide] | 0.158 µM
Cc1nc(N)sc1C(=O)NCc1cc2c(cc1F)[C@@](C#CC1CC1)(C(F)(F)F)NC(=O)N2 [Example 84, (S)-2-amino-N-((4-(cyclopropylethynyl)-6-fluoro-2-oxo-4-(trifluoromethyl)-1,2,3,4-tetrahydroquinazolin-7-yl)methyl)-4-methylthiazole-5-carboxamide] | 0.273 µM
O=C1Nc2cc(CNC(=O)c3nnc[nH]3)c(F)cc2[C@@](C#CC2CC2)(C(F)(F)F)N1 [Example 85, (S)-N-((4-(cyclopropylethynyl)-6-fluoro-2-oxo-4-(trifluoromethyl)-1,2,3,4-tetrahydroquinazolin-7-yl)methyl)-4H-1,2,4-triazole-3-carboxamide] | 0.28 µM

— patent publication US20250026759A1 (Merck Sharp & Dohme LLC, priority 2023, published 2025)
